Source: US20240409536A1, “COMPOUNDS AND METHODS FOR MODULATING SPLICING” (REMIX THERAPEUTICS INC., priority 2021, published 2024)

Key:
Target C = assay: HiBiT protein abundance assay, Target C (K562 HiBiT knock-in cells); type: cell-based, human; settings: 24 hours
Method in brief: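 K562 knock-in cells (10000/well, IMDM+1% FBS) treated 24 h at 37 °C with 10-point 3-fold dilutions, top final 10 μM, DMSO ≤0.25%. HiBiT lytic luminescence read; response normalized to unmodified K562 and DMSO-treated controls. IC50 interpolated at 50% abundance by four-parameter logistic fit.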

HiBiT-tagged MYB protein = assay: HiBiT protein abundance assay, MYB (K562 HiBiT knock-in cells); type: cell-based, human; settings: 24 hours
Method in brief: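 K562 cells with endogenous HiBiT knock-in tag, 10-point 3-fold dilutions (top 10 μM final, ≤0.25% DMSO), 24 h at 37 °C. Lytic Nano-Glo HiBiT luminescence, normalized to DMSO and unmodified K562 baselines; IC50 is concentration giving 50% protein abundance from four-parameter fit.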

K562 cells = assay: Cell Titer Glo 2.0 cell viability assay in K562 cells; settings: 72 hours
Experimental: Compounds described herein were screened for toxicity in K562 (human chronic myelogenous leukemia) and SH-SY5Y (human neuroblastoma) cells using a Cell Titer Glo 2.0 assay.
Cells were plated at 500 cells/well (K562 cells) in 45 μL of IMDM supplemented with 10% FBS in a 384-well opaque plate. Wells containing only medium were used as a blank control. Test compounds (e.g., compounds of Formula (I), (II), or (III)) were first serially diluted in DMSO then diluted 1:100 with IMDM+10% FBS. The final concentration of DMSO was 0.1% in each well. The cells were incubated for 72 hours at 37° C. and 5% CO2 before assaying with Cell Titer Glo 2.0 reagent.

HTT mRNA = assay: Splicing RT-qPCR assay, HTT canonical (CJ) and alternative (AJ) junction mRNA; type: cell-based; settings: Homo sapiens, A673 or K562 cells, 24 hours; for IC50: decrease in canonical junction mRNA; for AC50: increase in alternative junction mRNA
Method in brief: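 Splice switching was scored by qPCR detection of the new alternative-exon junction (AJ) alongside the canonical junction (CJ). Cell lines A673 or K562 received compound 24 h, top dose 10 uM final.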

Structure (SMILES) | IC50 (Target C) [nM] | IC50 (HiBiT-tagged MYB protein) [nM] | IC50 (HTT mRNA) [nM] | Viability (K562 cells) | AC50 (HTT mRNA) [nM]
Cc1cn2cc(NC(=O)c3ccc(N4CCN[C@@H](C5CC5)C4)c4nccnc34)cc(F)c2n1 [Compound 252, 8-[(3S)-3-cyclopropylpiperazin-1-yl]-N-{8-fluoro-2-methylimidazo[1,2-a]pyridin-6-yl}quinoxaline-5-carboxamide] | 1000 to 10000 | 100 to 1000 | > 10000 | B (B represents 100-1000 nM) | > 10000
CNC1CCN(c2ccc(C(=O)Nc3cc(F)c4nc(C)cn4c3)c3nc(OCCOC)ccc23)C1 (stereo not shown) [Compound 234] | 1000 to 10000 | < 100 | 1000 to 10000 | B (B represents 100-1000 nM) | 1000 to 10000
Cc1cn2cc(NC(=O)c3ccc(N4CCNCC4)c4nccnc34)cc(F)c2n1 [Compound 111] | 1000 to 10000 | < 100 | 1000 to 10000 | B (B represents 100-1000 nM) | 1000 to 10000
Cc1cn2nc(NC(=O)c3ccc(C4CCNCC4)c4ccnnc34)cc(C)c2n1 [Compound 113] | 1000 to 10000 | 1000 to 10000 | 1000 to 10000 |  | 1000 to 10000
COc1nc2c(N3C[C@@H](C)N[C@@H](C)C3)ccc(C(=O)Nc3cc(F)c4nc(C)cn4c3)c2nc1C [Compound 260, 8-((3R,5S)-3,5-dimethylpiperazin-1-yl)-N-(8-fluoro-2-methylimidazo[1,2-a]pyridin-6-yl)-2-methoxy-3-methylquinoxaline-5-carboxamide; 2,2,2-trifluoroacetate] | 1000 to 10000 | < 100 | 100 to 1000 | C (C represents 1000-9999 nM) | 1000 to 10000
CN[C@H]1CCN(c2ccc(C(=O)Nc3cc(F)c4nc(C)cn4c3)c3nnccc23)C1 [Compound 239, (S)—N-(8-fluoro-2-methylimidazo[1,2-a]pyridin-6-yl)-5-(3-(methylamino)pyrrolidin-1-yl)cinnoline-8-carboxamide] | 1000 to 10000 | < 100 | 1000 to 10000 | B (B represents 100-1000 nM) | 1000 to 10000
COc1nc(NC(=O)c2ccc(N3C[C@@H](C)N[C@@H](C)C3)c3nccnc23)cn2cc(C)nc12 [Compound 277] | 1000 to 10000 | < 100 | 100 to 1000 | B (B represents 100-1000 nM) | 1000 to 10000
Cc1cn2cc(NC(=O)c3ccc(N4CCN[C@H](C5CC5)C4)c4nccnc34)cc(F)c2n1 [Compound 253, 8-[(3R)-3-cyclopropylpiperazin-1-yl]-N-{8-fluoro-2-methylimidazo[1,2-a]pyridin-6-yl}quinoxaline-5-carboxamide] | 1000 to 10000 | < 100 | 1000 to 10000 | A (A represents <100 nM) | 1000 to 10000
Cc1cn2cc(NC(=O)c3ccc(N4C[C@@H](C5CC5)N[C@@H](C)C4)c4nccnc34)cc(F)c2n1 [Compound 267, 8-((3R,5S)-3-cyclopropyl-5-methylpiperazin-1-yl)-N-(8-fluoro-2-methylimidazo[1,2-a]pyridin-6-yl)quinoxaline-5-carboxamide] | > 10000 | 100 to 1000 | > 10000 | B (B represents 100-1000 nM) | > 10000
CN[C@@H]1CCN(c2ccc(C(=O)Nc3cc(F)c4nc(C)cn4c3)c3nnccc23)C1 [Compound 238, (R)—N-(8-fluoro-2-methylimidazo[1,2-a]pyridin-6-yl)-5-(3-(methylamino)pyrrolidin-1-yl)cinnoline-8-carboxamide] | 1000 to 10000 | < 100 | 1000 to 10000 | B (B represents 100-1000 nM) | 1000 to 10000
Cc1cn2cc(NC(=O)c3ccc(N4CC[C@@H](N)C4)c4ccnnc34)cc(F)c2n1 [Compound 270] | 1000 to 10000 | 100 to 1000 | 1000 to 10000 | B (B represents 100-1000 nM) | 1000 to 10000
Cc1cn2cc(NC(=O)c3ccc([C@H]4CCNC4)c4nccnc34)cc(F)c2n1 [Compound 246] | 1000 to 10000 | 100 to 1000 | 1000 to 10000 | B (B represents 100-1000 nM) | 1000 to 10000
Cc1cn2cc(NC(=O)c3ccc(N4C[C@@H](C)N[C@@H](C)C4)c4ncc(O)nc34)cc(F)c2n1 [Compound 275] | > 10000 | > 10000 | > 10000 |  | > 10000
Cc1cn2cc(NC(=O)c3ccc(N4C5CNCC54)c4nccnc34)cc(F)c2n1 (stereo not shown) [Compound 262, 8-{3,6-diazabicyclo[3.1.0]hexan-6-yl}-N-{8-fluoro-2-methylimidazo[1,2-a]pyridin-6-yl}quinoxaline-5-carboxamide] | 100 to 1000 | 100 to 1000 | 100 to 1000 |  | 100 to 1000
Cc1cn2cc(NC(=O)c3ccc(C4=CCNCC4)c4nccnc34)cc(F)c2n1 [Compound 240, N-{8-fluoro-2-methylimidazo[1,2-a]pyridin-6-yl}-8-(1,2,3,6-tetrahydropyridin-4-yl)quinoxaline-5-carboxamide] | 100 to 1000 | < 100 | < 100 |  | 100 to 1000

Now from value to compound, other results behind:

IC50 (Target C) [nM] | IC50 (HiBiT-tagged MYB protein) [nM] | IC50 (HTT mRNA) [nM] | Structure (SMILES) | Viability (K562 cells) | AC50 (HTT mRNA) [nM]
> 10000 | 100 to 1000 | > 10000 | Cc1cn2cc(NC(=O)c3ccc(NC4CCNC4)c4nccnc34)cc(F)c2n1 (stereo not shown) [Compound 316] | B (B represents 100-1000 nM) | 1000 to 10000
> 10000 | 100 to 1000 | 1000 to 10000 | Cc1cn2cc(NC(=O)c3ccc(N4C[C@@H](C)N[C@@H](C)C4)c4ncc(OC5CC5)nc34)cc(F)c2n1 [Compound 351] | B (B represents 100-1000 nM) | > 10000
100 to 1000 | < 100 | 100 to 1000 | CCOc1cnc2c(N3C[C@@H](C)N[C@@H](C)C3)ccc(C(=O)Nc3cc(F)c4nc(C)cn4c3)c2n1 [Compound 296] | B (B represents 100-1000 nM) | 100 to 1000
> 10000 | > 10000 | > 10000 | COc1nc2c(F)cc(NC(=O)c3ccc(N4C[C@@H](C)N[C@@H](C)C4)c4nccnc34)cc2o1 [Compound 342] | C (C represents 1000-9999 nM) | > 10000
> 10000 | 1000 to 10000 | > 10000 | C[C@@H]1CN(c2ccc(C(=O)Nc3cc(F)c4ncccc4c3)c3nccnc23)C[C@H](C)N1 [Compound 344] | C (C represents 1000-9999 nM) | > 10000
1000 to 10000 | 100 to 1000 | > 10000 | COc1nc(NC(=O)c2ccc(N3C[C@@H](C)N[C@@H](C)C3)c3nccnc23)cc2oc(C)nc12 [Compound 298] | C (C represents 1000-9999 nM) | > 10000
100 to 1000 | < 100 | 100 to 1000 | Cc1cn2cc(NC(=O)c3ccc(N4C[C@@H](C)N[C@@H](C)C4)c4ncc(N(C)C)nc34)cc(F)c2n1 [Compound 283] | B (B represents 100-1000 nM) | 100 to 1000
> 10000 | 1000 to 10000 | > 10000 | CNc1nc(NC(=O)c2ccc(N3C[C@@H](C)N[C@@H](C)C3)c3nccnc23)cn2cc(C)nc12 [Compound 308] | C (C represents 1000-9999 nM) | > 10000
1000 to 10000 | 100 to 1000 | 1000 to 10000 | Cc1cn2cc(NC(=O)c3ccc(N4CCN[C@H](CO)C4)c4nccnc34)cc(F)c2n1 [Compound 362] | B (B represents 100-1000 nM) | 1000 to 10000
100 to 1000 | 100 to 1000 | 100 to 1000 | Cc1cn2nc(NC(=O)c3ccc(N4C[C@@H](C)N[C@@H](C)C4)c4nccnc34)cc2c(C)n1 [Compound 354] | B (B represents 100-1000 nM) | 100 to 1000
1000 to 10000 | < 100 | 1000 to 10000 | Cc1cn2cc(NC(=O)c3ccc(N4C[C@H](C)N[C@@H](C)C4)c4nccnc34)cc(F)c2n1 [Compound 313] |  | 1000 to 10000
1000 to 10000 | 100 to 1000 | 1000 to 10000 | C[C@@H]1CN(c2ccc(C(=O)Nc3cc(F)c4nn(C)cc4c3)c3nccnc23)C[C@@H](C)N1 [Compound 335] |  | > 10000
> 10000 | < 100 | > 10000 | Cc1cn2cc(NC(=O)c3ccc(N4C[C@@H](C)N[C@@H](C)C4)c4nccnc34)nc(Cl)c2n1 [Compound 279] |  | > 10000
1000 to 10000 | 100 to 1000 | > 10000 | Cc1cn2cc(NC(=O)c3ccc(N4C[C@@H](C)N(O)[C@@H](C)C4)c4nccnc34)cc(F)c2n1 [Compound 355] |  | 1000 to 10000
100 to 1000 | < 100 | 100 to 1000 | COc1ncc2c(N3C[C@@H](C)N[C@@H](C)C3)ccc(C(=O)Nc3cc(F)c4nc(C)cn4c3)c2n1 [Compound 300] |  | 100 to 1000
1000 to 10000 | < 100 | 1000 to 10000 | Cc1cn2cc(NC(=O)c3ccc(N4C[C@@H](C)N[C@H](C)C4)c4nccnc34)cc(F)c2n1 [Compound 312] |  | 1000 to 10000
